Assay results reported in patent US20240117005A1, “NOVEL BICYCLIC PEPTIDES” (THE COUNCIL OF THE QUEENSLAND INSTITUTE OF MEDICAL RESEARCH, priority 2021, published 2024).
Entries after “also recorded” stand apart in the source; their conditions may differ. No end group written: not given here. *: point of attachment. Myristyl = CCCCCCCCCCCCCC*

Biological target: T1, complex of PDL1 (unmodified) and IMPα1 (Homo sapiens, UniProt P52292)
T1 construct: endogenous in cells; host or cells: MDA-MB-231
Experiment: DUOLINK proximity assay PDL1 (unmodified) and IMPα1, MDA-MB-231
Type: cell-based
Conditions: for complex of PDL1 (unmodified) and IMPα1 (DUOLINK): MDA-MB-231
Protocol: To characterize unmodified PDL1 and IMPα1, MDA-MB-231 cells or CT26 cells were treated with vehicle control, DL-2-batch 1, DL-2-batch 2 or linear PDL1. Cells were permeabilised and were probed with the DUOLINK ligation assay. Cover slips were mounted on glass microscope slides with ProLong nucblue glass Antifade reagent (Life Technologies). PDL1 (unmodified) and IMPα1 DUOLINK Digital images were analysed using ImageJ software (ImageJ, NIH, Bethesda, MD, USA) and graphs represent the mean DOT Fluorescent Intensity in the nucleus or the cytoplasm compartments with significant differences calculated as per One-Way ANOVA comparison.
(A) CT26, 4T1 or MDA-MB-231 Cells were treated with inhibitors for 72 hours. Following inhibition, media was removed and replaced with WST-1 cell proliferation reagent. Absorbance was recorded at 450 nm after 1 hour. Data represent a single independent experiment performed in triplicate. Results are graphed as mean +/− standard error (SE). B) MDA-MB-231 or CT26 cancer cells were treated with vehicle control, DL-2-Batch 1 (original stock), DL-2-Batch 2 (current stock), DL-2-TBAB or linear PDL1. Cells were permeabilised and were probed with the DUOLINK ligation assay. Cover slips were mounted on glass microscope slides with ProLong nucblue glass Antifade reagent (Life Technologies). PDL1Ac and IMPα1 DUOLINK Digital images were analysed using ImageJ software (ImageJ, NIH, Bethesda, MD, USA) and graphs represent the mean DOT Fluorescent Intensity in the nucleus or the cytoplasm compartments with significant differences calculated as per one-way ANOVA comparison. […] PDL1-unmodified and IMPα1 DUOLINK digital images were analysed using ImageJ software (ImageJ, NIH, Bethesda, MD, USA) and graphs represent the mean DOT fluorescent intensity in the nucleus or the cytoplasm compartments with significant differences calculated as per one-way ANOVA comparison.
MDA-MB-231 and CT26 cells were treated with vehicle control, DL-2-Batch 1, DL-2-Batch 2, DL-2-TBAB (TBAB scaffold), DL-2-D (D-Isomer) or linear PDL1. […] PDL1 (unmodified) and IMPα1 and PDL1-PTM1 and IMPα1 DUOLINK digital images were analysed using ImageJ software (ImageJ, NIH, Bethesda, MD, USA) and graphs represent the mean DOT Fluorescent Intensity in the nucleus or the cytoplasm compartments with significant differences calculated as per One-Way ANOVA comparison. […]
MDA-MB-231 cells were treated with vehicle control (hollow nanoparticle), DL-2-NP at a concentration of 10 nM to 0.3 nM. […] PDL1 (unmodified) & IMPα1 DUOLINK digital images were analysed using ImageJ software (ImageJ, NIH, Bethesda, MD, USA) and graphs represent the mean DOT Fluorescent Intensity in the nucleus or the cytoplasm compartments with significant differences calculated as per One-WayANOVA comparison.

Row | Molecule | complex of PDL1 (unmodified) and IMPα1 (DUOLINK) | IC50 (MDA-MB-231, DUOLINK, read-out: IC50 for abrogating the PDL1 and IMPα1 complex) [nM] | complex of PDL1 (unmodified) and IMPα1 (DUOLINK) (listed as linear PDL1 peptide)
1 | CCCCCCCCCCCCCC(=O)NC(C)C(=O)NC1CSCc2cc3cc(c2)CSC[C@H](NC(=O)[C@H](Cc2ccccc2)NC(=O)[C@H](C(C)CC)NC(=O)[C@H](Cc2ccccc2)NC(=O)[C@H]([C@@H](C)O)NC(=O)C(CC(C)C)NC1=O)C(=O)N[C@@H](CCCNC(C)=N)C(=O)N[C@@H](CC(C)C)C(=O)N[C@@H](CCCNC(=N)N)C(=O)N[C@@H](CCCCN)C(=O)NCC(=O)N[C@@H](CCCNC(=N)N)C(=O)NC(C(=O)N[C@@H](CCSC)C(=O)NC(CCSC)C(=O)N[C@@H](CC(=O)O)C(=O)NC(C(=O)N[C@@H](CCCCN)C(=O)NC(CCCCN)C(=O)O)C(C)C)CSC3 (mixture of isomers) [DL-2] | able to abrogate the complex | 39 | –
2 | LTFIFRLRKGRMMDVKK (Myristyl-LTFIFRLRKGRMMDVKK) [PDL1-L1, Myristyl- linear peptide, prototype] | unable to significantly impact the complex; also recorded: no change | – | unable to significantly inhibit this complex
